Assay: excess molar enthalpy (molar enthalpy of mixing); xn = mol fraction of the nth substance listed
Details: Liquid, Flow calorimetry

COC(=O)OC [dimethyl carbonate] + CO
Details | excess molar enthalpy [kcal/mol]
298.15 K, 1000 kPa, x2 = 0.25 | 0.2729
298.15 K, 1000 kPa, x2 = 0.3 | 0.2933
298.15 K, 1000 kPa, x2 = 0.35 | 0.3075
298.15 K, 1000 kPa, x2 = 0.4 | 0.315
298.15 K, 1000 kPa, x2 = 0.45 | 0.3163
298.15 K, 1000 kPa, x2 = 0.5 | 0.313
298.15 K, 1000 kPa, x2 = 0.55 | 0.3034
298.15 K, 1000 kPa, x2 = 0.6 | 0.2901
298.15 K, 1000 kPa, x2 = 0.65 | 0.2735
298.15 K, 1000 kPa, x2 = 0.7 | 0.2508
298.15 K, 1000 kPa, x2 = 0.75 | 0.2229
298.15 K, 1000 kPa, x2 = 0.8 | 0.1931
313.15 K, 100 kPa, x2 = 0.048 | 0.0748
313.15 K, 100 kPa, x2 = 0.1 | 0.1539
313.15 K, 100 kPa, x2 = 0.1492 | 0.2119
313.15 K, 100 kPa, x2 = 0.2014 | 0.2621
313.15 K, 100 kPa, x2 = 0.2506 | 0.2976
313.15 K, 100 kPa, x2 = 0.302 | 0.3238
313.15 K, 100 kPa, x2 = 0.3503 | 0.341
313.15 K, 100 kPa, x2 = 0.4001 | 0.3506
313.15 K, 100 kPa, x2 = 0.451 | 0.3535
313.15 K, 100 kPa, x2 = 0.4985 | 0.3472
313.15 K, 100 kPa, x2 = 0.5501 | 0.3409
313.15 K, 100 kPa, x2 = 0.6014 | 0.3255
313.15 K, 100 kPa, x2 = 0.6489 | 0.3073
313.15 K, 100 kPa, x2 = 0.6987 | 0.2839
313.15 K, 100 kPa, x2 = 0.7499 | 0.254
313.15 K, 100 kPa, x2 = 0.7992 | 0.2162
313.15 K, 100 kPa, x2 = 0.851 | 0.1699
313.15 K, 100 kPa, x2 = 0.95 | 0.0561
313.15 K, 1000 kPa, x2 = 0.0477 | 0.08505
313.15 K, 1000 kPa, x2 = 0.0994 | 0.158
313.15 K, 1000 kPa, x2 = 0.1484 | 0.2155
313.15 K, 1000 kPa, x2 = 0.2003 | 0.2637
313.15 K, 1000 kPa, x2 = 0.2493 | 0.2969
313.15 K, 1000 kPa, x2 = 0.3006 | 0.3229
313.15 K, 1000 kPa, x2 = 0.3487 | 0.3403
313.15 K, 1000 kPa, x2 = 0.3985 | 0.3519
313.15 K, 1000 kPa, x2 = 0.4493 | 0.3546
313.15 K, 1000 kPa, x2 = 0.5006 | 0.3496
313.15 K, 1000 kPa, x2 = 0.5485 | 0.3404
313.15 K, 1000 kPa, x2 = 0.5998 | 0.3247
313.15 K, 1000 kPa, x2 = 0.6504 | 0.3053
313.15 K, 1000 kPa, x2 = 0.7001 | 0.2815
313.15 K, 1000 kPa, x2 = 0.7512 | 0.2509
313.15 K, 1000 kPa, x2 = 0.8005 | 0.2149
313.15 K, 1000 kPa, x2 = 0.8501 | 0.1691
313.15 K, 1000 kPa, x2 = 0.9497 | 0.0534
313.15 K, 10000 kPa, x2 = 0.0477 | 0.08818
313.15 K, 10000 kPa, x2 = 0.0994 | 0.1621
313.15 K, 10000 kPa, x2 = 0.1484 | 0.2188
313.15 K, 10000 kPa, x2 = 0.2003 | 0.2659
313.15 K, 10000 kPa, x2 = 0.2493 | 0.2989
313.15 K, 10000 kPa, x2 = 0.3006 | 0.3252
313.15 K, 10000 kPa, x2 = 0.3487 | 0.3416
313.15 K, 10000 kPa, x2 = 0.3985 | 0.3512
313.15 K, 10000 kPa, x2 = 0.4493 | 0.3536
313.15 K, 10000 kPa, x2 = 0.5006 | 0.3509
313.15 K, 10000 kPa, x2 = 0.5485 | 0.3423
313.15 K, 10000 kPa, x2 = 0.5998 | 0.3285
313.15 K, 10000 kPa, x2 = 0.6504 | 0.3088
313.15 K, 10000 kPa, x2 = 0.7001 | 0.2842
313.15 K, 10000 kPa, x2 = 0.7512 | 0.2511
313.15 K, 10000 kPa, x2 = 0.8005 | 0.2158
313.15 K, 10000 kPa, x2 = 0.8501 | 0.1733
313.15 K, 10000 kPa, x2 = 0.9497 | 0.0561
328.15 K, 1000 kPa, x2 = 0.05 | 0.09171
328.15 K, 1000 kPa, x2 = 0.1 | 0.1733
328.15 K, 1000 kPa, x2 = 0.15 | 0.2349
328.15 K, 1000 kPa, x2 = 0.2 | 0.2867
328.15 K, 1000 kPa, x2 = 0.25 | 0.3264
328.15 K, 1000 kPa, x2 = 0.3 | 0.3555
328.15 K, 1000 kPa, x2 = 0.35 | 0.375
328.15 K, 1000 kPa, x2 = 0.4 | 0.3883
328.15 K, 1000 kPa, x2 = 0.45 | 0.3934
328.15 K, 1000 kPa, x2 = 0.5 | 0.3894
328.15 K, 1000 kPa, x2 = 0.55 | 0.3796
328.15 K, 1000 kPa, x2 = 0.6 | 0.3638
328.15 K, 1000 kPa, x2 = 0.65 | 0.3412
328.15 K, 1000 kPa, x2 = 0.7 | 0.3139
328.15 K, 1000 kPa, x2 = 0.75 | 0.279
328.15 K, 1000 kPa, x2 = 0.8 | 0.2383
328.15 K, 1000 kPa, x2 = 0.8509 | 0.1886
328.15 K, 1000 kPa, x2 = 0.95 | 0.0625

COC(=O)OC [dimethyl carbonate] + CCO
Details | excess molar enthalpy [kcal/mol]
298.15 K, 1000 kPa, x1 = 0.05 | 0.1012
298.15 K, 1000 kPa, x1 = 0.1 | 0.1881
298.15 K, 1000 kPa, x1 = 0.15 | 0.2526
298.15 K, 1000 kPa, x1 = 0.2 | 0.3048
298.15 K, 1000 kPa, x1 = 0.25 | 0.3456
298.15 K, 1000 kPa, x1 = 0.3 | 0.3728
298.15 K, 1000 kPa, x1 = 0.35 | 0.3921
298.15 K, 1000 kPa, x1 = 0.4 | 0.4023
298.15 K, 1000 kPa, x1 = 0.45 | 0.4067
298.15 K, 1000 kPa, x1 = 0.5 | 0.4047
298.15 K, 1000 kPa, x1 = 0.55 | 0.3955
298.15 K, 1000 kPa, x1 = 0.6 | 0.3776
298.15 K, 1000 kPa, x1 = 0.65 | 0.3579
298.15 K, 1000 kPa, x1 = 0.7 | 0.3311
298.15 K, 1000 kPa, x1 = 0.75 | 0.2963
298.15 K, 1000 kPa, x1 = 0.8 | 0.2542
298.15 K, 1000 kPa, x1 = 0.85 | 0.2024
313.15 K, 100 kPa, x1 = 0.0521 | 0.0984
313.15 K, 100 kPa, x1 = 0.098 | 0.1854
313.15 K, 100 kPa, x1 = 0.1514 | 0.2672
313.15 K, 100 kPa, x1 = 0.1988 | 0.3216
313.15 K, 100 kPa, x1 = 0.2488 | 0.3685
313.15 K, 100 kPa, x1 = 0.3012 | 0.4033
313.15 K, 100 kPa, x1 = 0.3519 | 0.4273
313.15 K, 100 kPa, x1 = 0.4008 | 0.4431
313.15 K, 100 kPa, x1 = 0.4516 | 0.447
313.15 K, 100 kPa, x1 = 0.5007 | 0.4465
313.15 K, 100 kPa, x1 = 0.5515 | 0.4379
313.15 K, 100 kPa, x1 = 0.6003 | 0.4197
313.15 K, 100 kPa, x1 = 0.6506 | 0.3969
313.15 K, 100 kPa, x1 = 0.699 | 0.3683
313.15 K, 100 kPa, x1 = 0.7513 | 0.3253
313.15 K, 100 kPa, x1 = 0.7987 | 0.2835
313.15 K, 100 kPa, x1 = 0.8497 | 0.2287
313.15 K, 100 kPa, x1 = 0.9012 | 0.1572
313.15 K, 100 kPa, x1 = 0.9504 | 0.0808
313.15 K, 1000 kPa, x1 = 0.052 | 0.1039
313.15 K, 1000 kPa, x1 = 0.0979 | 0.1898
313.15 K, 1000 kPa, x1 = 0.1513 | 0.2697
313.15 K, 1000 kPa, x1 = 0.1986 | 0.3254
313.15 K, 1000 kPa, x1 = 0.2487 | 0.3721
313.15 K, 1000 kPa, x1 = 0.3011 | 0.4066
313.15 K, 1000 kPa, x1 = 0.3517 | 0.4296
313.15 K, 1000 kPa, x1 = 0.4006 | 0.4435
313.15 K, 1000 kPa, x1 = 0.4515 | 0.4496
313.15 K, 1000 kPa, x1 = 0.5006 | 0.4474
313.15 K, 1000 kPa, x1 = 0.5513 | 0.4373
313.15 K, 1000 kPa, x1 = 0.6002 | 0.4211
313.15 K, 1000 kPa, x1 = 0.6504 | 0.3971
313.15 K, 1000 kPa, x1 = 0.6988 | 0.3677
313.15 K, 1000 kPa, x1 = 0.7511 | 0.3259
313.15 K, 1000 kPa, x1 = 0.7986 | 0.2824
313.15 K, 1000 kPa, x1 = 0.8496 | 0.2284
313.15 K, 1000 kPa, x1 = 0.9011 | 0.1552
313.15 K, 1000 kPa, x1 = 0.9504 | 0.0781
313.15 K, 10000 kPa, x1 = 0.0517 | 0.09719
313.15 K, 10000 kPa, x1 = 0.1019 | 0.1904
313.15 K, 10000 kPa, x1 = 0.1505 | 0.2626
313.15 K, 10000 kPa, x1 = 0.2019 | 0.3232
313.15 K, 10000 kPa, x1 = 0.2517 | 0.3678
313.15 K, 10000 kPa, x1 = 0.2998 | 0.4004
313.15 K, 10000 kPa, x1 = 0.3503 | 0.4236
313.15 K, 10000 kPa, x1 = 0.3992 | 0.4379
313.15 K, 10000 kPa, x1 = 0.45 | 0.4441
313.15 K, 10000 kPa, x1 = 0.4991 | 0.4423
313.15 K, 10000 kPa, x1 = 0.5498 | 0.4331
313.15 K, 10000 kPa, x1 = 0.5987 | 0.4174
313.15 K, 10000 kPa, x1 = 0.6491 | 0.394
313.15 K, 10000 kPa, x1 = 0.7005 | 0.3625
313.15 K, 10000 kPa, x1 = 0.75 | 0.3257
313.15 K, 10000 kPa, x1 = 0.8004 | 0.279
313.15 K, 10000 kPa, x1 = 0.8489 | 0.2261
313.15 K, 10000 kPa, x1 = 0.9006 | 0.1567
313.15 K, 10000 kPa, x1 = 0.9501 | 0.0768
328.15 K, 1000 kPa, x1 = 0.05 | 0.1153
328.15 K, 1000 kPa, x1 = 0.1 | 0.2147
328.15 K, 1000 kPa, x1 = 0.15 | 0.2918
328.15 K, 1000 kPa, x1 = 0.2 | 0.3565
328.15 K, 1000 kPa, x1 = 0.25 | 0.4091
328.15 K, 1000 kPa, x1 = 0.3 | 0.4447
328.15 K, 1000 kPa, x1 = 0.35 | 0.4711
328.15 K, 1000 kPa, x1 = 0.4 | 0.4883
328.15 K, 1000 kPa, x1 = 0.45 | 0.4949
328.15 K, 1000 kPa, x1 = 0.5 | 0.4942
328.15 K, 1000 kPa, x1 = 0.55 | 0.4854
328.15 K, 1000 kPa, x1 = 0.6 | 0.47
328.15 K, 1000 kPa, x1 = 0.65 | 0.4467
328.15 K, 1000 kPa, x1 = 0.7 | 0.4113
328.15 K, 1000 kPa, x1 = 0.75 | 0.3653
328.15 K, 1000 kPa, x1 = 0.8 | 0.3136
328.15 K, 1000 kPa, x1 = 0.85 | 0.2508
328.15 K, 1000 kPa, x1 = 0.9 | 0.1742
328.15 K, 1000 kPa, x1 = 0.95 | 0.08759

From the NIST ThermoML archive (doi:10.1021/je050052+)
